Measurements from patent EP1978972B1, “USE OF ALKYLGLUCOSIDE ESTERS AS BETA-DEFENSIN INDUCERS” (Pierre Fabre Dermo-Cosmétique, priority 2006, dated 2007).

Assays:
hBD-2 = type: cell-based, human; settings: skin explant, systemic
From the text: Il est connu de WO 97/45101 que les esters d'α-alkylglucoside peuvent être utilisés comme agent anti-microbien et/ou anti-fongique pour agir en tant que conservateur dans une composition, pour la préserver d'un développement microbien. D'autre part, les propriétés moussantes des esters de méthyl glucose sont décrites dans Desai et al (« Sofw Journal Seife, Oele, Fette, Wachse, Verlag für chemische Industrie » 1991). • Modèle cellulaire : lignée cellulaire HaCat, kératynocytes d'origine humaine, primoculture de kératinocytes humains • Modèle tissulaire : • Explants de peau normale provenant de déchet opératoire de chirurgie esthétique • Explants de gencive normale provenant de déchet opératoire de chirurgie implantatoire ou d'épithélium gingival reconstruit à partir de cellules épithéliales orales primaires • ➢ Les cellules HaCat sont ensemencées et cultivées en plaque 6 puits à 200 000 cellules/puits sous un volume de 2 ml de milieu de culture DMEM 1640 : (Ref: Invitrogen) complémenté par 10 % de sérum de veau foetal (SVF, Ref : CH30160.02 Perbio-Hyclone) pendant 18 h (sur la nuit). • ➢ A T0 les cellules sont lavées avec du tampon Phosphate (PBS, Ref: 52100-039 Invitrogen) puis privées en sérum pour les rendre quiescentes pendant 24 h (ralentissement de leur croissance et élimination de toute trace de facteurs susceptibles de perturber les effets induits par les traitements ultérieurs). • ➢ A T0+24 h les cellules sont traitées par des cytokines pro-inflammatoires (TNF-α à 10 ng/ml, IL1-β à 10 ng/ml) ou des éléments bactériens (LPS à 50 ng/ml, SEB à 100 ng/ml) ou des actifs potentiels de type « alkyle mono- ou di-ester d'α,β-butylglucoside » dilués dans du DMEM (1 ml/puits); La durée du traitement est de 3 h à 37°C. • ➢ Les kératinocytes primaires sont préparés à partir de peau normale provenant de déchet opératoire de chirurgie esthétique. Ils sont ensemencés et cultivés en plaque 24 puits à 60 000 cellules/puits sous un volume de 0,5 ml de milieu de culture KSFM (Ref : 37010 Invitrogen) complémenté par de l'EGF (Epidermal Growth Factor) à 1,5 ng/ml et du BPE (bovine pituitary extract) à 25 µg/ml pendant 24 h. • ➢ A J0, le milieu est remplacé par 0,5 ml de milieu KSFM complet, additionné de 1,2 nM de calcium. • ➢ A J+3, les cellules sont traitées par des cytokines pro-inflammatoires TNF-α et IL 1-β à 10 ng/ml ou des actifs potentiels de type « alkyle mono- ou di-ester d'α,β-butylglucoside » dilués dans 0,3 ml de milieu KSFM complet, en présence de 1,2 nM de calcium. […]

hBD-3 = test: Immunohistochemistry of hBD-3 peptide in reconstructed gingival epithelium; type: cell-based, human; settings: vs untreated sample, qualitative
Description: Les échantillons inclus dans la résine Tissue Tek® sont coupés à froid (température de la chambre à -25°C et la température du porte-objet à - 28°C) à l'aide d'un cryostat (Leica CM 3050s, Nussloch). Les cryocoupes d'une épaisseur de 5 µm sont récupérées sur des lames porte-objet prétraitées, puis mises à sécher environ 2 h à température ambiante et stockées à -20°C pour une utilisation ultérieure. Avant de réaliser l'immuno-marquage, les coupes sont fixées à l'acétone à -20°C pendant 10 min, séchées et conservées à -20°C. Lors d'une première étape, les coupes sont hydratées puis incubées avec les anticorps primaires dirigés contre les peptides d'intérêt dilués dans du PBS. Les anticorps primaires utilisés sont les suivants : • Goat Anti-human BD-2 (500-P161G, Peprotech Inc) dilué au 1/50^e • Rabbit Anti-human defensin-3 (AB3478, Chemicon international) dilué au 1/1000^e • Rabbit Anti-human LL37 (G-075-06, Phoenix Pharmaceuticals Inc) dilué au 1/50^e
Pour révéler le complexe Antigène-Anticorps, le kit DAKO LSAB® (DAKO Corporation) est utilisé selon les recommandations du fournisseur. La révélation est réalisée à l'aide d'un substrat de la péroxydase : la 3,3'diaminobenzidine (DAB) (DAKO Corporation). […]

laurate de butylglucoside [αβ-LBG brut]
incubation time from which hBD-2 induction is effective (hBD-2): ≤ 1 h | synthèse des transcrits hBD-2 (hBD-2; 30 µg/ml, in words): capable d'induire la synthèse des transcrits hBD-2 | production du peptide hBD-3 par les cellules de l'épithélium gingival reconstruit (hBD-3): confirmer la production du peptide hBD-3
